Calls of active or inactive are those of the source. No rule for the calls is given here.
Test system: CCRIS mutagenicity, Ames/micronucleus/aberration tests
Assay: CCRIS mutagenicity studies
[1] = End Point: IN VITRO CHROMOSOMAL ABERRATIONS, Test System: CHINESE HAMSTER OVARY CELLS, Metabolic Activation: NONE
[2] = End Point: IN VITRO CHROMOSOMAL ABERRATIONS, Test System: CHINESE HAMSTER OVARY CELLS, Metabolic Activation: RAT, LIVER, S-9, AROCLOR 1254
[3] = Test System: AMES SALMONELLA TYPHIMURIUM, Strain/Indicator: TA98, Metabolic Activation: NONE, Method: STANDARD PLATE
[4] = Test System: AMES SALMONELLA TYPHIMURIUM, Strain/Indicator: TA100, Metabolic Activation: NONE, Method: STANDARD PLATE
[5] = Test System: AMES SALMONELLA TYPHIMURIUM, Strain/Indicator: TA98, Metabolic Activation: NONE, Method: PREINCUBATION
[6] = Test System: AMES SALMONELLA TYPHIMURIUM, Strain/Indicator: TA98, Metabolic Activation: RAT, LIVER, S-9, AROCLOR 1254, Method: PREINCUBATION
[7] = Test System: AMES SALMONELLA TYPHIMURIUM, Strain/Indicator: TA100, Metabolic Activation: NONE, Method: PREINCUBATION
[8] = Test System: AMES SALMONELLA TYPHIMURIUM, Strain/Indicator: TA100, Metabolic Activation: RAT, LIVER, S-9, AROCLOR 1254, Method: PREINCUBATION

CC(Cl)(Cl)Cl
mutagenic call [1]: active; positive | mutagenic call [2]: inactive; negative | mutagenic call (End Point: In vitro chromosomal aberrations, Test System: Chinese hamster lung (CHL/IU) cells, Metabolic Activation: Rat, Liver, S9, Phenobarbital and 5,6-benzoflavone): inactive; negative (structural changes and ploidy showed weak response without dose respon | mutagenic call (Test System: AMES SALMONELLA TYPHIMURIUM, Strain/Indicator: TA97, Metabolic Activation: NONE, Method: STANDARD PLATE): active; positive | mutagenic call (Test System: AMES SALMONELLA TYPHIMURIUM, Strain/Indicator: TA97, Metabolic Activation: RAT, LIVER S-9, AROCLOR 1254, Method: STANDARD PLATE): active; positive | mutagenic call [3]: active; positive | mutagenic call (Test System: AMES SALMONELLA TYPHIMURIUM, Strain/Indicator: TA98, Metabolic Activation: RAT, LIVER S-9, AROCLOR 1254, Method: STANDARD PLATE): active; positive | mutagenic call [4]: active; positive | mutagenic call (Test System: AMES SALMONELLA TYPHIMURIUM, Strain/Indicator: TA100, Metabolic Activation: NONE, Method: VAPOR CHAMBER): active; positive | mutagenic call (Test System: AMES SALMONELLA TYPHIMURIUM, Strain/Indicator: TA100, Metabolic Activation: RAT, LIVER S-9, AROCLOR 1254, Method: STANDARD PLATE): inactive; negative | mutagenic call (Test System: AMES SALMONELLA TYPHIMURIUM, Strain/Indicator: TA100, Metabolic Activation: RAT, LIVER, S-9, AROCLOR 1254, Method: DESICCATOR): active; positive | mutagenic call (Test System: AMES SALMONELLA TYPHIMURIUM, Strain/Indicator: TA100, Metabolic Activation: RAT, LIVER, S-9, AROCLOR 1254, Method: VAPOR CHAMBER): active; positive | mutagenic call (Test System: AMES SALMONELLA TYPHIMURIUM, Strain/Indicator: TA104, Metabolic Activation: NONE, Method: STANDARD PLATE): inactive; negative | mutagenic call (Test System: AMES SALMONELLA TYPHIMURIUM, Strain/Indicator: TA104, Metabolic Activation: RAT, LIVER, S-9, AROCLOR 1254, Method: STANDARD PLATE): active; positive | mutagenic call (Test System: AMES SALMONELLA TYPHIMURIUM, Strain/Indicator: TA1535, Metabolic Activation: NONE, Method: VAPOR CHAMBER): active; positive | mutagenic call (Test System: AMES SALMONELLA TYPHIMURIUM, Strain/Indicator: TA1535, Metabolic Activation: RAT, LIVER, S-9, AROCLOR 1254, Method: VAPOR CHAMBER): active; positive

CC(=O)Nc1ccc2[nH]c3ccccc3c2c1[N+](=O)[O-]
mutagenic call [3]: active; positive | mutagenic call (Test System: AMES SALMONELLA TYPHIMURIUM, Strain/Indicator: TA98, Metabolic Activation: RAT, LIVER, S-9, PHENOBARBITAL, Method: STANDARD PLATE): active; positive | mutagenic call [4]: inactive; negative | mutagenic call (Test System: AMES SALMONELLA TYPHIMURIUM, Strain/Indicator: TA100, Metabolic Activation: RAT, LIVER, S-9, PHENOBARBITAL, Method: STANDARD PLATE): inactive; negative | mutagenic call (Test System: AMES SALMONELLA TYPHIMURIUM, Strain/Indicator: TA1537, Metabolic Activation: NONE, Method: STANDARD PLATE): inactive; negative | mutagenic call (Test System: AMES SALMONELLA TYPHIMURIUM, Strain/Indicator: TA1537, Metabolic Activation: RAT, LIVER, S-9, PHENOBARBITAL, Method: STANDARD PLATE): inactive; negative | mutagenic call (Test System: AMES SALMONELLA TYPHIMURIUM, Strain/Indicator: TA1538, Metabolic Activation: NONE, Method: STANDARD PLATE): active; positive | mutagenic call (Test System: AMES SALMONELLA TYPHIMURIUM, Strain/Indicator: TA1538, Metabolic Activation: RAT, LIVER, S-9, PHENOBARBITAL, Method: STANDARD PLATE): active; positive | mutagenic call (Test System: AMES SALMONELLA TYPHIMURIUM, Strain/Indicator: TA1977, Metabolic Activation: NONE, Method: STANDARD PLATE): inactive; negative | mutagenic call (Test System: AMES SALMONELLA TYPHIMURIUM, Strain/Indicator: TA1977, Metabolic Activation: RAT, LIVER, S-9, PHENOBARBITAL, Method: STANDARD PLATE): inactive; negative

CC1(C)CC(C(N)=O)C(C)(C)N1[O] (stereo unspecified)
mutagenic call [4]: inactive; negative

COc1cc(N)ccc1NC(C)=O
mutagenic call [3]: inactive; negative | mutagenic call (Test System: AMES SALMONELLA TYPHIMURIUM, Strain/Indicator: TA98, Metabolic Activation: RAT, LIVER, S-9, AROCLOR 1254, Method: STANDARD PLATE): active; positive

CCC(C)C=O (stereo unspecified)
mutagenic call [5]: inactive; negative | mutagenic call [6]: inactive; negative | mutagenic call [7]: inactive; negative | mutagenic call [8]: inactive; negative | mutagenic call (Test System: AMES SALMONELLA TYPHIMURIUM, Strain/Indicator: TA102, Metabolic Activation: NONE, Method: PREINCUBATION): inactive; negative | mutagenic call (Test System: AMES SALMONELLA TYPHIMURIUM, Strain/Indicator: TA102, Metabolic Activation: RAT, LIVER, S-9, AROCLOR 1254, Method: PREINCUBATION): inactive; negative

CC(C)NCC(O)c1ccc(O)c(O)c1 (stereo unspecified)
mutagenic call [1]: inactive; negative | mutagenic call [2]: active; positive | mutagenic call (Test System: AMES SALMONELLA TYPHIMURIUM, Strain/Indicator: TA98, Metabolic Activation: HAMSTER, LIVER, S-9, AROCLOR 1254, Method: PREINCUBATION): inactive; negative | mutagenic call [5]: inactive; negative | mutagenic call [6]: inactive; negative | mutagenic call (Test System: AMES SALMONELLA TYPHIMURIUM, Strain/Indicator: TA100, Metabolic Activation: HAMSTER, LIVER, S-9, AROCLOR 1254, Method: PREINCUBATION): inactive; negative | mutagenic call [7]: inactive; negative | mutagenic call [8]: inactive; negative | mutagenic call (Test System: AMES SALMONELLA TYPHIMURIUM, Strain/Indicator: TA1535, Metabolic Activation: HAMSTER, LIVER, S-9, AROCLOR 1254, Method: PREINCUBATION): inactive; negative | mutagenic call (Test System: AMES SALMONELLA TYPHIMURIUM, Strain/Indicator: TA1535, Metabolic Activation: NONE, Method: PREINCUBATION): inactive; negative | mutagenic call (Test System: AMES SALMONELLA TYPHIMURIUM, Strain/Indicator: TA1535, Metabolic Activation: RAT, LIVER, S-9, AROCLOR 1254, Method: PREINCUBATION): inactive; negative | mutagenic call (Test System: AMES SALMONELLA TYPHIMURIUM, Strain/Indicator: TA1537, Metabolic Activation: HAMSTER, LIVER, S-9, AROCLOR 1254, Method: PREINCUBATION): inactive; negative | mutagenic call (Test System: AMES SALMONELLA TYPHIMURIUM, Strain/Indicator: TA1537, Metabolic Activation: NONE, Method: PREINCUBATION): inactive; negative | mutagenic call (Test System: AMES SALMONELLA TYPHIMURIUM, Strain/Indicator: TA1537, Metabolic Activation: RAT, LIVER, S-9, AROCLOR 1254, Method: PREINCUBATION): inactive; negative

O=C1C2(Cl)C3(Cl)C4(Cl)C(Cl)(Cl)C5(Cl)C3(Cl)C1(Cl)C5(Cl)C24Cl (stereo unspecified)
mutagenic call [1]: inactive; negative | mutagenic call [2]: inactive; negative
